In data set [1] the target is T1, TrpCysGlyHisCysLys (PDI active site hexapeptide) (Homo sapiens, UniProt P07237).
T1 construct: purchased Auspep, Parkville, Australia; host or cells: synthetic peptide
Nature of the data set: Binding of GSAO to dithiols, loss of thiols in DTNB assay. On the procedure: (§1) FIG. 12. Interaction of GSAO with synthetic. Deptide and protein dithiols. DMP (A) (15 μM), 6,8-thioctic acid (B) ([…]), dithiothreitol (C) (8.5 μM), TrpCysGlyProCysLys (D) (4.6 μM), TrpCysGlyHisCysLys (E) (5.5 μM) or thioredoxin (F) (4.1 μM corresponding to 20.6 μM thiols) was incubated with GSAO (0–56 μM) for 10 minutes. DTNB (950 μM) was then added and the reactions incubated for a further 10 minutes. The concentration of thiol in the reactions was determined from the absorbance of the TNB dianion at 412 nm. The solid lines represent the best non-linear least squares fit of the data to Equation 1 (A to E) or Equation 2 (F) and have been drawn using the parameter estimates in Table 1. The dotted line in part A represents a simulated titration assuming an infinite affinity of GSAO for the dithiol. GSAO bound to both synthetic, peptide and protein dithiols with dissociation constants in the range 130 nM to 1.4 μM.
(§2) A stock solution of DMP (5 μL, 50 μmol) was dissolved in DMSO (995 μL), giving a concentration of 50 mM DMP. A second dilution of the 50 mM DMP stock solution (10 μL) in pH 7.0 buffer (0.1 M HEPES, 0.3 M NaCl, 1 mM EDTA) (990 μL) gave a working solution of 500 ? M DMP. The activity of the arsenical could then be determined by the titration of varying amounts of arsenical against the DMP working solution (10 μL) in a 96-well microbitre plate, with the total volume made up to 195 μL by addition of buffer. After a 10 minute incubation at room temperature, during which time the solutions were agitated on a plate shaker, 5 μL of a 37.9 mM stock solution of DTNB (15 mg) in DMSO (1 mL) was added, and the plate incubated with shaking for another 10 minutes. The absorbance at 412 nm due to the formation of the TNB dianion was measured using a Molecular Devices Thermomax Plus (Palo Alto, Calif.) microplate reader. The extinction coefficient for the TNB dianion at pH 7.0 is 14,150 M^−1cm^−1 at 412 nm (Riddles et al., 1983).
(§3) Recombinant human thioredoxin produced in E. coli was from American Diagnostica, Greenwich, Conn. The hexapeptides, TrpCysGlyProCysLys (SEQ ID NO: 1) and TrpCysGiyHisCysLys (SEQ ID NO: 2), were from Auspep, Parkville, Australia.
(§4) Binding of GSAO to dithiols was measured from loss of thiols using the DTNB assay described above. The dissociation constant, Kd, for GSAO binding to dithiols was determined by incubating increasing concentrations of GSAO, I, with a fixed dithiol concentration, [S]T, and measuring the remaining dithiol using DTNB. Note that the concentration of dithiol equals half the TNB concentration. The concentration of dithiol.GSAO complex, SI, as a function of the total GSAO concentration, [I]T, is described by Equation 1 (Hogg and Jackson, 1990), [SI]=0.5.{([S]T+x.[I]T+Kd)−(([S]T+x.[I]T+Kd)^2−4.[S]T.x.[I]T)^0.5} (1) […]

For data set [2], the target named is T2, TrpCysGlyProCysLys (thioredoxin active site hexapeptide) (Homo sapiens, UniProt P10599).
T2 construct: purchased Auspep, Parkville, Australia; host or cells: synthetic peptide
The data set is described as above. The protocol:
as §1, §2, §3, §4

In a further data set the target is T3, Thioredoxin (Homo sapiens, UniProt P10599).
T3 construct: purchased American Diagnostica, Greenwich, Conn; host or cells: E. coli
T3 sequence (P10599 1-105): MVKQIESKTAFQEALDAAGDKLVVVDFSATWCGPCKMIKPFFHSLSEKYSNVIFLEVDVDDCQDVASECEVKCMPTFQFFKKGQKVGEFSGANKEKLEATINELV
Nature of the data set: Binding of GSAO to thioredoxin active site dithiol, DTNB assay. On the procedure: as §1, with “GSAO bound to both synthetic, peptide and protein dithiols with dissociation constants in the range 130 nM to 1.4 μM.” left out
A stock solution of DMP (5 μL, 50 μmol) was dissolved in DMSO (995 μL), giving a concentration of 50 mM DMP. […] The activity of the arsenical could then be determined by the titration of varying amounts of arsenical against the DMP working solution (10 μL) in a 96-well microbitre plate, with the total volume made up to 195 μL by addition of buffer. […] The absorbance at 412 nm due to the formation of the TNB dianion was measured using a Molecular Devices Thermomax Plus (Palo Alto, Calif.) microplate reader. […]

Where [3] appears, read: Dissociation Constant, ring size 15, errors are 1 SD.
Setting [4] is: dissociation constant, approximate value.

Two compounds from patent publication US7186695B2 (priority 2001, dated 2007) can be followed below.

As to `NC(CCC(=O)NC(CSCC(=O)Nc1ccc([As]=O)cc1)C(=O)NCC(=O)O)C(=O)O` (stereo not shown) [GSAO, 4-(N-(S-glutathionylacetyl)amino)-phenylarsenoxide], the dissociation constant Kd in data set [1] (setting [3]) is 870 ± 270 nM; in data set [1] (setting [4]), approximately 1000 nM; in data set [2] (setting [3]), 1420 nM; in data set [2] (setting [4]), approximately 1000 nM; at Thioredoxin it was 370 ± 180 nM. Moreover, the “higher affinity for thioredoxin than for the thioredoxin active site hexapeptide” value on Thioredoxin (thioredoxin vs TrpCysGlyProCysLys) is approximately 4 fold.

Turning to `N[C@@H](CCC(=O)N[C@@H](CSCC(=O)Nc1ccc([As](=O)(O)O)cc1)C(=O)NCC(=O)O)C(=O)O` [GSAA, 4-(N-(S-glutathionylacetyl)amino)phenylarsonic acid, reference compound], the “effect on BAE viability” value in the data set on BAE cells was “no significant effect”.
